Test results reported in US7524851B2 (Robert Bosch Gesellschaft fur Medizinische Forschung (RBMF), priority 2003, dated 2009).

Key:
[1] = test system: lamina propria lymphocytes; experiment: Apoptosis of anti-CD2/CD28 activated lamina propria lymphocytes in vitro; format: cell-based, human; conditions: ulcerative colitis; 5 days
Source text: Isolation of primary CD4^+ T lymphocytes and lamina propria cells: Human peripheral blood mononuclear cells (PBMCs) from healthy volunteers (25-42 years of age) and patients with Crohn's disease (31-65 years of age) were isolated using Ficoll-Hypaque gradients. PBMCs were further purified using CD4 monoclonal antibodies attached to immunomagnetic beads according to the manufacturer's protocol, followed by treatment with Detachabead (Dynal; Oslo, Norway). In some cases, CD4^+ T cells were further separated by negative selection techniques using CD45RO or CD45RA monoclonal antibodies (PharMingen; Heidelberg, Germany) and immunomagnetic beads (Dynal). […]
For FACS analysis, apoptotic cells were detected by staining with annexin V and propidium iodide using the Annexin V FITC Apoptosis Detection Kit I (PharMingen) (Atreya et al., Nat. Med. 6:583-588 (2000)). […] To verify the results obtained with the annexin V/propidium iodide staining, analysis of T cells displaying DNA fragmentation was also determined by the Nicoletti technique, as described in (Nicoletti et al., J. Immunol. Methods 139:271-279 (1991)). […] Finally, cells were analyzed on a FACScan flow cytometer. […]

[2] = test system: lamina propria mononuclear cells; experiment: TUNEL assay for apoptotic lamina propria mononuclear cells in IBD patients; format: in vivo, human
Source text: FIG. 3. […] (a) LPMCs were isolated and stimulated with anti-CD2/CD28 plus IL-2 in the presence or absence of 6-MP for 5 days followed by FACS analysis. […] Data represent mean values±SEM from eight patients with IBD per group. […] Data are representative of 5-13 patients per group. Magnification, ×20 (bar=100 μm) (ce) and ×40 (bar=50 μm) (f-h). (i) Quantification of the percentage of apoptotic, TUNEL-positive LPMCs in patients with IBD receiving 6-MP as compared with untreated control patients. […] Data are mean values±SEM of 5-13 patients per group.

Sc1ncnc2nc[nH]c12 [6-MP, 6-mercaptopurine]
apoptosis in anti-CD2 plus anti-CD28 activated lamina propria lymphocytes [1]: capable of inducing apoptosis | number of apoptotic cells ([2]; 6-MP-resistant patients with IBD): no increase | number of apoptotic lamina propria mononuclear cells ([2]; successful 6-MP treatment vs untreated patients with IBD, P<0.01): significant increase
